Publication PMC6273868, “High-Resolution α-Glucosidase Inhibition Profiling Combined with HPLC-HRMS-SPE-NMR for Identification of Antidiabetic Compounds in Eremanthus crotonoides (Asteraceae)” (Molecules, 2016)
Entries after “also recorded” stand apart in the source; their conditions may differ.

Legend:
α-glucosidase [1] = experiment: High-resolution α-glucosidase inhibition profiling (biochromatogram) of HPLC microfractions; format: biochemical, Saccharomyces cerevisiae; parameters: α-glucosidase inhibitory activity of peak in biochromatogram / α-glucosidase inhibitory activity, direct readout from the biochromatogram: concentration or dose not given beside the values; settings: for α-glucosidase inhibitory activity as seen in the biochromatogram of E. crotonoides extract (in words): crude defatted ethyl acetate extract, C18 column; for α-glucosidase inhibitory activity of peak in biochromatogram: microfractionation of fraction Fr.2 on PFP column; for α-glucosidase inhibitory activity of peak in biochromatogram / α-glucosidase inhibitory activity, direct readout from the biochromatogram: relative inhibition, quantity unknown; for α-glucosidase inhibitory activity, direct readout from the biochromatogram: biochromatogram of crude defatted extract
Experimental: Thus, 0.4 mg of the extract of E. crotonoides was subjected to analytical-scale reversed-phase HPLC, and the eluate in the retention time range from 3.0 to 78.0 min was fractionated into four 96-well microplates, yielding a resolution of 4.7 data points/min (the first column of each microplate was reserved for blanks and controls). This was followed by evaporation of the HPLC eluate from all wells, reconstitution in buffer containing 10% DMSO, and assessment of the α-glucosidase inhibitory activity of all wells (final concentration of DMSO during assay = 5%). The inhibitory activities (calculated as percentage inhibition) were plotted against the retention time from the microfractionation to give the high-resolution α-glucosidase inhibition profile (biochromatogram) shown in Figure 1. The HPLC chromatogram at 254 nm is shown with the blue line (top) and the high-resolution α-glucosidase inhibition profile shown with the red line at the bottom. The high resolution of the biochromatogram allows direct correlation of HPLC peaks and peaks in the biochromatogram—thereby pinpointing peaks corresponding to compounds with α-glucosidase inhibitory activity.
(§1) Methanol and ethyl acetate used for extraction were purchased from Tedia (Fairfield, OH, USA). Formic acid was obtained from Merck (Darmstadt, Germany) and water was prepared by a deionization and 0.22-µm membrane filtration system (Milipore, Billerica, MA, USA).
Microfractionation was performed with an Agilent 1200 series instrument (Santa Clara, CA, USA) consisting of a G1316A quartenary pump, a G1322A degasser, a G1316A thermostatted column compartment, a G1315C photodiode-array detector, a G1364C fraction collector, and a G1367C high-performance auto sampler, controlled by Agilent ChemStation ver. B.03.02 software. The columns used were a Phenomenex C18(2) Luna (150 mm × 4.6 mm, 3 μm particle size, 100 Å pore size) and a Phenomenex PFP Kinetex (150 mm × 4.6 mm, 2.6 μm particle size, 100 Å pore size). For fractionation of the crude defatted ethyl acetate extract of E. crotonoides (injection: 4 μL; concentration: 100 mg/mL) the temperature was maintained at 40 °C and the flow rate at 0.5 mL/min. The solvents were a binary gradient mixture of water–acetonitrile (95:5 v/v) as eluent A and acetonitrile–water (95:5 v/v) as eluent B, both acidified with 0.1% formic acid. The following elution profile was used: 0 min, 10% B; 35 min, 26% B; 50 min, 35% B; 60 min, 40% B; 90 min, 100% B, and the eluate from 3 to 78 min was fractionated into four 96-well microplates, leading to a resolution of 4.7 data points per min. For fractionation of Fr.2 (injection: 2 μL; concentration: 33 mg/mL) the same conditions as described above were used, but with methanol and the PFP column instead of acetonitrile and the C18 column. The eluate from 8 to 30 min was fractionated into one 96-well microplate (resolution: 4.0 data points per min) using the following gradient: 0 min, 50% B; 3 min, 50% B; 34 min, 59% B; 35 min 100% B; 38 min, 100% B. The collected fractions were evaporated to dryness using a Savant SPD121P speed vacuum concentrator coupled with a RVT400 refrigerated vapor trap and an OFP-400 oil free pump (Holbrook, NY, USA). The α-glucosidase inhibitiory activity of the fractions was determined according to the previously described procedure. Briefly, the content of each well was dissolved in 100 μL of 0.1 M phosphate buffer containing 10% of DMSO and added 80 μL of the α-glucosidase solution. After incubation at 28 °C for 10 min the reaction was initiated by addition of 20 μL of PNPG (10 mM in phosphate buffer) (final volume = 200 μL and final DMSO = 5%). The cleavage product of PNPG was monitored at 405 nm for 35 min using a Multiskan FC microplate photometer (Thermo Scientific, Waltham, MA, USA) and the percentage enzyme inhibition was calculated. […]

α-glucosidase [2] = molecular target: α-glucosidase; parameters: method as in PMID 25172103; settings: known as a weak inhibitor; cited from earlier work
yeast α-glucosidase = experiment: α-glucosidase inhibition assay, dilution series for IC50 determination (PNPG substrate); format: biochemical, Saccharomyces cerevisiae; settings: for IC50: isolated compounds, means ± SD of triplicate experiments
Experimental: as §1
Microfractionation was performed with an Agilent 1200 series instrument (Santa Clara, CA, USA) consisting of a G1316A quartenary pump, a G1322A degasser, a G1316A thermostatted column compartment, a G1315C photodiode-array detector, a G1364C fraction collector, and a G1367C high-performance auto sampler, controlled by Agilent ChemStation ver. B.03.02 software. The columns used were a Phenomenex C18(2) Luna (150 mm × 4.6 mm, 3 μm particle size, 100 Å pore size) and a Phenomenex PFP Kinetex (150 mm × 4.6 mm, 2.6 μm particle size, 100 Å pore size). For fractionation of the crude defatted ethyl acetate extract of E. crotonoides (injection: 4 μL; concentration: 100 mg/mL) the temperature was maintained at 40 °C and the flow rate at 0.5 mL/min. The solvents were a binary gradient mixture of water–acetonitrile (95:5 v/v) as eluent A and acetonitrile–water (95:5 v/v) as eluent B, both acidified with 0.1% formic acid. The following elution profile was used: 0 min, 10% B; 35 min, 26% B; 50 min, 35% B; 60 min, 40% B; 90 min, 100% B, and the eluate from 3 to 78 min was fractionated into four 96-well microplates, leading to a resolution of 4.7 data points per min. For fractionation of Fr.2 (injection: 2 μL; concentration: 33 mg/mL) the same conditions as described above were used, but with methanol and the PFP column instead of acetonitrile and the C18 column. The eluate from 8 to 30 min was fractionated into one 96-well microplate (resolution: 4.0 data points per min) using the following gradient: 0 min, 50% B; 3 min, 50% B; 34 min, 59% B; 35 min 100% B; 38 min, 100% B. The collected fractions were evaporated to dryness using a Savant SPD121P speed vacuum concentrator coupled with a RVT400 refrigerated vapor trap and an OFP-400 oil free pump (Holbrook, NY, USA). The α-glucosidase inhibitiory activity of the fractions was determined according to the previously described procedure. Briefly, the content of each well was dissolved in 100 μL of 0.1 M phosphate buffer containing 10% of DMSO and added 80 μL of the α-glucosidase solution. After incubation at 28 °C for 10 min the reaction was initiated by addition of 20 μL of PNPG (10 mM in phosphate buffer) (final volume = 200 μL and final DMSO = 5%). The cleavage product of PNPG was monitored at 405 nm for 35 min using a Multiskan FC microplate photometer (Thermo Scientific, Waltham, MA, USA) and the percentage enzyme inhibition was calculated. The α-glucosidase inhibition of each well was plotted at their respective retention times underneath the HPLC chromatogram to obtain a high-resolution biochromatogram.
Preparative-scale fractionation was performed using an Agilent 1100 series instrument equipped with a multiple wavelength detector, an autosampler and two preparative-scale solvent delivery pumps. The column used was a Phenomenex C18(2) Luna (250 mm × 21.2 mm, 5 μm particle size, 100 Å pore size) and the gradient method was as follows: 0 min, 20% B; 27 min, 35% B; 37 min, 40% B; 40 min, 100% B; 46 min, 100% B; 47 min, 20% B; 52 min, 20% B using a binary mixture of water–acetonitrile (95:5 v/v) as eluent A and acetonitrile–water (95:5 v/v) as eluent B, both acidified with 0.1% formic acid.

Row | SMILES | α-glucosidase inhibitory activity as seen in the biochromatogram of E. crotonoides extract (in words) (α-glucosidase [1]) | α-glucosidase inhibitory activity of peak in biochromatogram (α-glucosidase [1]) [%] | IC50 (yeast α-glucosidase) [µM] | also measured
1 | O=C(/C=C/c1ccc(O)c(O)c1)O[C@H]1[C@H](O)C[C@](O)(C(=O)O)C[C@H]1OC(=O)/C=C/c1ccc(O)c(O)c1 [Compound 8, 3,4-di-O-caffeoylquinic acid] | no or very low | – | – | –
2 | O=C(/C=C/c1ccc(O)c(O)c1)O[C@@H]1C[C@](O)(C(=O)O)C[C@@H](OC(=O)/C=C/c2ccc(O)c(O)c2)[C@H]1O [Compound 9, 3,5-di-O-caffeoylquinic acid] | no or very low | – | – | –
3 | O=C(/C=C/c1ccc(O)c(O)c1)O[C@@H]1[C@H](O)C[C@@](O)(C(=O)O)C[C@H]1OC(=O)/C=C/c1ccc(O)c(O)c1 [Compound 11, 4,5-di-O-caffeoylquinic acid] | no or very low; also recorded: minor | – | – | IC50 (α-glucosidase [2]): > 100 µM
4 | O=C(/C=C/c1ccc(O)c(O)c1)OC[C@H]1O[C@@H](Oc2c(-c3ccc(O)c(O)c3)oc3cc(O)cc(O)c3c2=O)[C@H](O)[C@@H](O)[C@@H]1O [Compound 12, quercetin-3-O-(6″-(E)-O-caffeoyl)-β-D-glucoside] | minor | – | – | –
5 | O=c1c(O)c(-c2ccc(O)c(O)c2)oc2cc(O)cc(O)c12 [Compound 16, quercetin] | – | 82 | – | –
6 | O=C(/C=C/c1ccc(O)cc1)OC[C@H]1O[C@@H](Oc2c(-c3ccc(O)cc3)oc3cc(O)cc(O)c3c2=O)[C@H](O)[C@@H](O)[C@@H]1O [Compound 17, trans-tiliroside] | – | 23 | > 210 | Inhibition at 210 μM (yeast α-glucosidase; 210 μM): 4.5%
7 | O=c1cc(-c2ccc(O)c(O)c2)oc2cc(O)cc(O)c12 [Compound 19, luteolin] | – | 32 | 59.6 ± 1.32 | –
8 | COc1c(-c2ccc(O)c(O)c2)oc2cc(O)cc(O)c2c1=O [Compound 20, quercetin 3-methyl ether] | – | 70 | 20.4 ± 1.3 | –
9 | CCCCOC(=O)[C@]1(O)C[C@@H](OC(=O)/C=C/c2ccc(O)c(O)c2)[C@@H](O)[C@H](OC(=O)/C=C/c2ccc(O)c(O)c2)C1 [Compound 26, 3,5-di-O-caffeoylquinic acid n-butyl ester] | – | – | 5.93 ± 0.12 | α-glucosidase inhibitory activity, direct readout from the biochromatogram (α-glucosidase [1]): 92%
10 | CCCCOC(=O)[C@]1(O)C[C@@H](O)[C@@H](OC(=O)/C=C/c2ccc(O)c(O)c2)[C@H](OC(=O)/C=C/c2ccc(O)c(O)c2)C1 [Compound 29, 4,5-di-O-caffeoylquinic acid n-butyl ester] | – | – | 5.2 ± 0.3 | α-glucosidase inhibitory activity, direct readout from the biochromatogram (α-glucosidase [1]): 57%
